Assay results reported in US7053107B2, “Indazole compounds and pharmaceutical compositions for inhibiting protein kinases, and methods for their use” (Agouron Pharmaceuticals, Inc., priority 2002, dated 2006).

Experiments:
[1] = biological target: T1, unphosphorylated VEGF-R2Δ50 (Homo sapiens, UniProt P35968, DEL940-989/E990V); experiment: VEGF-R2 coupled spectrophotometric assay, unphosphorylated construct (FLVK); type: biochemical; details: % inhibition at 50 nM compound; read-out: FLVK Ki % inh @ 50 nM
T1 construct: VEGF-R2Δ50 contains residues 806–939 and 990–1171; made in house; host or cells: baculovirus/insect cell system
Procedure, shortened: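 Human VEGF-R2Δ50 kinase (residues 806–939/990–1171, baculovirus-expressed; autophosphorylated form pre-treated with 3 mM ATP, 4° C, 2 h), 5–40 nM, with poly(E4Y1) in 200 mM HEPES pH 7.5; ADP coupled via PK/LDH to NADH oxidation at 340 nm. Phosphorylated: 1 mM ATP, 5.1 mM poly(E4Y1), 25 mM MgCl2; unphosphorylated: 3 mM ATP, 20 mM poly(E4Y1), 60 mM MgCl2, 2 mM MnCl2. Ki from activity at varying compound levels.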

KDR = biological target: T2, KDR (Homo sapiens, UniProt P35968); experiment: KDR (VEGFR2) Phosphorylation in PAE-KDR Cells Assay; type: cell-based; details: PAE cells overexpressing human KDR
T2 construct: expressed in transfected cells; host or cells: porcine aorta endothelial (PAE) cells
Protocol: This assay determines the ability of a test compound to inhibit the autophosphorylation of KDR in porcine aorta endothelial (PAE)-KDR cells. PAE cells that overexpress human KDR were used in this assay. The cells were cultured in Ham's F12 media supplemented with 10% fetal bovine serum (FBS) and 400 μg/mL G418. Thirty thousands cells were seeded into each well of a 96-well plate in 75 μL of growth media and allowed to attach for 6 hours at 37° C. Cells were then exposed to the starvation media (Ham's F12 media supplemented with 0.1% FBS) for 16 hours. After the starvation period was over, 10 μL of test agent in 5% DMSO in starvation media were added to the test wells and 10 μL of the vehicle (5% DMSO in starvation media) were added into the control wells. The final DMSO concentration in each well was 0.5%. Plates were incubated at […] for 1 hour and the cells were then stimulated with 500 ng/ml VEGF (commercially available from R & D System) in the presence of 2 mM Na3VO4 for 8 minutes. The cells were washed once with 1 mm Na3VO4 in HBSS and lysed by adding 50 μL per well of lysis buffer. […] Phosphorylation status was assessed by spectrophotometer reading at 450 nm. IC50 values were calculated by curve fitting using a four-parameter analysis.

HUVEC = experiment: bFGF Huvec; type: cell-based; details: Homo sapiens
[2] = biological target: T3, phosphorylated VEGF-R2Δ50 (Homo sapiens, UniProt P35968, DEL940-989/E990V); experiment: VEGF-R2 coupled spectrophotometric (FLVK-P) assay, phosphorylated construct; type: biochemical; details: Ki (nM)
T3 construct: VEGF-R2Δ50 contains residues 806–939 and 990–1171; made in house; host or cells: baculovirus/insect cell system
From the text: This construct determines the ability of a test compound to inhibit tyrosine kinase activity. A construct (VEGF-R2Δ50) of the cytosolic domain of human vascular endothelial growth factor receptor 2 (VEGF-R2) lacking the 50 central residues of the 68 residues of the kinase insert domain was expressed in a baculovirus/insect cell system. Of the 1356 residues of full-length VEGF-R2, VEGF-R2Δ50 contains residues 806–939 and 990–1171, and also one point mutation (E99OV) within the kinase insert domain relative to wild-type VEGF-R2. Autophosphorylation of the purified construct was performed by incubation of the enzyme at a concentration of 4 μM in the presence of 3 mM ATP and 40 mM MgCl2 in 100 mM HEPES, pH 7.5, containing 5% glycerol and 5 mM DTT, at 4° C. for 2 h. […] See Parast et al., Biochemistry, 37,16788–16801 (1998).
The production of ADP from ATP that accompanies phosphoryl transfer was coupled to oxidation of NADH using phosphoenolpyruvate (PEP) and a system having pyruvate kinase (PK) and lactic dehydrogenase (LDH). The oxidation of NADH was monitored by following the decrease of absorbance at 340 nm (e340=6.22 cm^−1 mM^−1) using a Beckman DU 650 spectrophotometer. […] Ki values were determined by measuring enzyme activity in the presence of varying concentrations of test compounds. The data were analyzed using Enzyme Kinetic and Kaleidagraph software.

FGF-R1 = biological target: T4, FGF-R1 (Homo sapiens, UniProt P11362, C488A/C584S/L457V); experiment: Fibroblast Growth Factor (FGF-R) spectrophotometric assay; type: biochemical; details: 1 μM compound; read-out: FGF-P % inhibit @1 μM
T4 construct: starting from the endogenous methionine residue 456 to glutamate 766; made in house; host or cells: baculovirus vector expression system
Procedure, shortened: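 Baculovirus-expressed human FGF-R1 kinase domain (Met456–Glu766; L457V/C488A/C584S), 50 nM, with 2 mM ATP and 15 mM poly(E4Y1) in HEPES pH 7.5. ADP formation coupled via PK/LDH to NADH oxidation, read as A340 decrease. Ki from activity across varying compound concentrations.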

[3] = system: human umbilical vein endothelial cells (HUVEC); experiment: HUVEC Proliferation Assay (VEGF-stimulated); type: cell-based
Procedure, shortened: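 Serum-starved HUVEC (passage 3–4, F12K + 1% FBS, 24 h) pretreated 1 h with compound (final DMSO 0.1%), then stimulated with 6 ng/mL VEGF for 72 h. Proliferation read by 4 h MTT reduction, absorbance 595. IC50 from seven-point 0.5-log curves in triplicate; screening % inhibition normalised to VEGF-only and starvation controls.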

T1 sequence (P35968 with tags, fused parts or gaps DEL940-989/E990V limits assumed): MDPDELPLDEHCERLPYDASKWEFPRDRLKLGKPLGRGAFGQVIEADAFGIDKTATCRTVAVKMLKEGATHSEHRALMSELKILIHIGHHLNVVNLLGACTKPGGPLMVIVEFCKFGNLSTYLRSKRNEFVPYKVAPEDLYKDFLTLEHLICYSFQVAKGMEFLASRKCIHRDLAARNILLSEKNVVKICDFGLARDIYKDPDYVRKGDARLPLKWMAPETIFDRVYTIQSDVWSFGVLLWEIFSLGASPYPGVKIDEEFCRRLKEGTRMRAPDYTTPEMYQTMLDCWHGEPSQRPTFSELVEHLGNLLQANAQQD
T2 sequence (P35968 20-1356): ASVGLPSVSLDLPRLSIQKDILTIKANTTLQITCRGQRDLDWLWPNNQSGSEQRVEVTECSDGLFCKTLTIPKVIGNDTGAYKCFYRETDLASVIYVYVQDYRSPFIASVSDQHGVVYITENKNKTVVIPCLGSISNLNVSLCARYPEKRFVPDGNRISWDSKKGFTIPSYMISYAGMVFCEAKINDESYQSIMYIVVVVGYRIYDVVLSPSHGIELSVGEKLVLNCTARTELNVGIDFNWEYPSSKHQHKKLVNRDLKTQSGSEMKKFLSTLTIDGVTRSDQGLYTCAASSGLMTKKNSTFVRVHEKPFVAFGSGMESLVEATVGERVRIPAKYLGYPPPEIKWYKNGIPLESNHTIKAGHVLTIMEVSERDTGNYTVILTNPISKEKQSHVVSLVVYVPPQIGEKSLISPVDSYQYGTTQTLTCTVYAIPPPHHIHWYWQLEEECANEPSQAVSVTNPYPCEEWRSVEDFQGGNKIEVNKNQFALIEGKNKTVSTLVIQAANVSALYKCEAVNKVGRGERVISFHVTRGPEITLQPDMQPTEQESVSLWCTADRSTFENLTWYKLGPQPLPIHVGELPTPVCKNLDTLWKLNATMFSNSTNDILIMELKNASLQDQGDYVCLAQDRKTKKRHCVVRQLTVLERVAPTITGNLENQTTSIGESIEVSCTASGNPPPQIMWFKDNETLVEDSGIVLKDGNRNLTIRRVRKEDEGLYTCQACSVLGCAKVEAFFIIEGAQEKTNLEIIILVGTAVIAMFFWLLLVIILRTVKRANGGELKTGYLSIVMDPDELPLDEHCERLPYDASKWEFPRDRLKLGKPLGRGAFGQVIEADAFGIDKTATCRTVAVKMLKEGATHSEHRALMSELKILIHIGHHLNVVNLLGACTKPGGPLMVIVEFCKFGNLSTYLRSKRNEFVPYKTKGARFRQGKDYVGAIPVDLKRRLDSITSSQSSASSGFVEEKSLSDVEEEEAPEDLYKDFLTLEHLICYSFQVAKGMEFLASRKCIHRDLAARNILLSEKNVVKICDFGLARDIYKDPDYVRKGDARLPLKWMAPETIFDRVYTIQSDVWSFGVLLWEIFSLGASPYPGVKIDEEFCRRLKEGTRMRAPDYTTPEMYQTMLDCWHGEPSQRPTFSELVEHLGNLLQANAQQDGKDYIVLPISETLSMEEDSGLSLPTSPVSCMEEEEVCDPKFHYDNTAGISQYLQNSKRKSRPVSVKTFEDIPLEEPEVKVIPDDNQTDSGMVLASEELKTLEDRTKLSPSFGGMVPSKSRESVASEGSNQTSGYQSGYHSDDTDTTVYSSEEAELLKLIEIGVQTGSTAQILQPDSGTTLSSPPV
T4 sequence (P11362 456-766 L457V/C488A/C584S): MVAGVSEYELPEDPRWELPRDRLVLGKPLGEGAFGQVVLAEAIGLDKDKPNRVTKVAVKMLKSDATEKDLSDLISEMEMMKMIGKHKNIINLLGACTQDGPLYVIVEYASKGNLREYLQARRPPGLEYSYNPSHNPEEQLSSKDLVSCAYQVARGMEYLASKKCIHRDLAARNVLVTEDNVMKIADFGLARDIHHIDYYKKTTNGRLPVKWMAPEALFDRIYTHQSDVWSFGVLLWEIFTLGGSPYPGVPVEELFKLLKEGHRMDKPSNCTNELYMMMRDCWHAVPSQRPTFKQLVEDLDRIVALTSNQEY
T3 sequence (P35968 with tags, fused parts or gaps DEL940-989/E990V limits assumed): as the sequence (P35968 with tags, fused parts or gaps DEL940-989/E990V limits assumed) above

inhibition at 0.05 µM [1]	IC50 (KDR)	Ki [2]	inhibition at 1 µM (FGF-R1)	Structure (SMILES)	IC50 (HUVEC)	IC50 [3]
95%	1.62 nM	0.3 nM	69%	Cc1ccnc(/C=C/c2n[nH]c3cc(Nc4ccccc4C(=O)NCC#CC4CC4)ccc23)c1 [Example 36, N-(3Cycloprop-2-ynyl)-2-{3-[(E)-2-(4-methyl-pyridin-2-yl)-vinyl]-1H-indazol-6-ylamino}-benzamide]	935 nM	1.67 nM
90%	0.76 nM		45%	Cc1ccnc(/C=C/c2n[nH]c3cc(Nc4ccccc4C(=O)NCc4ccccn4)ccc23)c1 [Example 37, 2-{3-[2-(4-Methyl-pyridin-2-yl)-vinyl]-1H-indazol6-ylamino}-N-pyridin-2-ylmethyl-benzamide]		
